Earlier results, collected in patent US20070071706A1, “Lipodissolving dermatological topical preparation” (priority 2005, published 2007).

Conditions: used as transdermal permeability enhancer / carrier; delivered substance erythromycin; rats

systemic absorption of the substance being transdermally delivered: good systemic absorption
Structure (SMILES): CC(O)CO (centres unmarked) [propylene glycol]
local accumulation in the subcutaneous tissue of the substance being transdermally delivered: very negligible and short living subcutaneous accumulation
